Laboratory results published in patent publication US9248193B2, “Formulations of phenyl uracil compounds” (AbbVie Inc., priority 2011, dated 2016).

Assay: Light degradation under ICH photo condition
Type: physicochemical

## COc1c(/C=C/c2ccc(NS(C)(=O)=O)cc2)cc(-n2ccc(=O)[nH]c2=O)cc1C(C)(C)C [Compound A, (E)-N-(4-(3-tert-butyl-5-(2,4-dioxo-3,4-dihydropyrimidin-1(2H)-yl)-2-methoxystyryl)phenyl)methanesulfonamide]
  Stability in solution upon exposure to light: may convert into an alternative isomer
